The text below walks through data of US9718788B2, “Heteroaryl compounds useful as inhibitors of E1 activating enzymes” (MILLENNIUM PHARMACEUTICALS, INC., priority 2006, dated 2017).

The assay deals with T1, recombinant human NAE enzyme (Homo sapiens, UniProt Q8TBC4).
T1 construct: His (N); made in house; host or cells: Sf9 insect cells (baculovirus, Bac-to-Bac)
T1 sequence (Q8TBC4 1-463): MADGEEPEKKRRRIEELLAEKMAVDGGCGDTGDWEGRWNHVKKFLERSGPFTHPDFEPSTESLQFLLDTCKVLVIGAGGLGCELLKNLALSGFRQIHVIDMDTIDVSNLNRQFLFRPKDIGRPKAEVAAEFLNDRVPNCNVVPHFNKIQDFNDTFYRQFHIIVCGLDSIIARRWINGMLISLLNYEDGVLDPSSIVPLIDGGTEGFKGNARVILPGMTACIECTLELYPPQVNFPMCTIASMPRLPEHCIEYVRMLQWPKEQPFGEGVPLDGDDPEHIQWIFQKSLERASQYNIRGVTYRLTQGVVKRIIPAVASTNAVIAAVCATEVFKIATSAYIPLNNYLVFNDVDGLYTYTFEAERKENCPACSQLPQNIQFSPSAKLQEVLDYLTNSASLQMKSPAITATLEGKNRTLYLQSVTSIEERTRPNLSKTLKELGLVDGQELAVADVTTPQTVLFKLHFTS
T1 sequence (Q13564 1-534 partner): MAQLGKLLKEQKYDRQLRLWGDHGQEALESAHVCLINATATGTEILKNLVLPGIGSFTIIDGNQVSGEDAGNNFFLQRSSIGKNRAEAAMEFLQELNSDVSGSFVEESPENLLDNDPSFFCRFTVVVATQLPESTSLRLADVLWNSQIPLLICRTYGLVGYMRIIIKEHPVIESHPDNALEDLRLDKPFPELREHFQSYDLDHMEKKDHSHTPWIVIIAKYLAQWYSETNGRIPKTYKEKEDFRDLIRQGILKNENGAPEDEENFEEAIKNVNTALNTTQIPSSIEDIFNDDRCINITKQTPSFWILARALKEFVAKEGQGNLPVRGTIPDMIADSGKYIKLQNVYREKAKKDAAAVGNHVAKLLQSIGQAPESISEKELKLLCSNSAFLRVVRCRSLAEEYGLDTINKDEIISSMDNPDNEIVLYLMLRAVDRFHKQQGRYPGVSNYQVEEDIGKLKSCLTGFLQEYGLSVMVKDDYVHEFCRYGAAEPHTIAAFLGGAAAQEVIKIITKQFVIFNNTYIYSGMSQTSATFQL
As to the kind of experiment: Nedd8-Activating Enzyme (NAE) HTRF Assay. Format: biochemical. The note with it: 20 μM ATP. The procedure: Following manufacturer instructions, baculoviruses were generated with the Bac-to-Bac Expression System (Invitrogen) for the following proteins: untagged NAEα (APPBP1; NP_003896.1), N-terminally His-tagged NAEJ (UBE1C; NP_003959.3), untagged SAEα (SAE1; NP_005491.1), N-terminally His-tagged SAE3 (UBA2; NP_005490.1), N-terminally His-tagged murine UAE (UBE1X; NP_033483). NAEα/His-NAEβ and SAEα/His-SAEβ complexes were generated by co-infection of Sf9 cells, which were harvested after 48 hours. His-mUAE was generated by single infection of Sf9 cells and harvested after 72 hours. Expressed proteins were purified by affinity chromatography (Ni-NTA agarose, Qiagen) using standard buffers. Nedd8-Activating Enzyme (NAE) HTRF Assay. The NAE enzymatic reaction totaled 50 μL and contained 50 mM HEPES (pH 7.5), 0.05% BSA, 5 mM MgCl2, 20 μM ATP, 250 μM GSH, 0.01 μM Ubc12-GST, 0.075 μM Nedd8-Flag and 0.20 nM recombinant human NAE enzyme. The enzymatic reaction mixture, with and without compound inhibitor, was incubated at room temperature 24° C. for 105 minutes in a 384-well plate before termination with 25 μL of Stop/Detection buffer (0.1M HEPES pH 7.5, 0.05% Tween20, 20 mM EDTA, 410 mM KF, 0.53 nM Europium-Cryptate labeled monoclonal anti-FLAG M2 antibody (CisBio International) and 8.125 μg/mL PHYCOLINK goat anti-GST allophycocyanin (XL-APC) antibody (Prozyme)). After incubation for 1 hour at 24° C., quantification of the FRET was performed on the Analyst™ HT 96.384 (Molecular Devices).

As to `NS(=O)(=O)OC[C@@H]1C[C@@H](Nc2cc(N[C@H]3CCc4ccccc43)ncn2)[C@H](O)[C@@H]1O` [Compound I-11, [(1S,2R,3S,4R)-4-({6-[(1S)-2,3-dihydro-1H-inden-1-ylamino]pyrimidin-4-yl}-amino)-2,3-dihydroxycyclopentyl]methyl sulfamate], the IC50 (bound given in nM) was at most 500 nM.
As to `COc1cccc(-c2nc3c(N[C@@H]4C[C@@H](COS(N)(=O)=O)[C@@H](O)C4)ncnc3[nH]2)c1` [Compound I-99, ((1S,2S,4R)-2-hydroxy-4-{[8-(3-methoxyphenyl)-9H-purin-6-yl]amino}cyclopentyl)methyl sulfamate], the IC50 (bound given in nM) is at most 500 nM.
For the compound `NS(=O)(=O)OC[C@@H]1C[C@@H](Nc2ncnc3oc(-c4ccccc4)nc23)C[C@@H]1O` [Compound I-90, {(1S,2S,4R)-2-hydroxy-4-[(2-phenyl[1,3]oxazolo[5,4-d]pyrimidin-7-yl)amino]cyclopentyl}methyl sulfamate], under “bound given in nM”, the IC50 is at most 500 nM.
In the case of `NS(=O)(=O)OC[C@@H]1C[C@@H](Oc2cc(NC3CCCC3)ncn2)C[C@@H]1O` [Compound I-127, ((1S,2S,4R)-4-{[6-(cyclopentylamino)pyrimidin-4-yl]oxy}-2-hydroxycyclopentyl)methyl sulfamate], the IC50 reads like this: (bound given in nM) above 500 nM; (bound given in μM) below 10000 nM.
In the case of `CN(c1ncnc2[nH]c(-c3cccc4ccccc34)nc12)[C@@H]1C[C@@H](COS(N)(=O)=O)[C@@H](O)C1` [Compound I-46, ((1S,2S,4R)-2-hydroxy-4-{methyl[8-(1-naphthyl)-9H-purin-6-yl]amino}-cyclopentyl)methyl sulfamate], the IC50 (bound given in nM) was at most 500 nM.
Same read-out and setting: in the case of `NS(=O)(=O)OC[C@@H]1C[C@@H](Nc2ncnc3[nH]c(-c4ccc(Cl)cc4)nc23)C[C@@H]1O` [Compound I-111, ((1S,2S,4R)-4-{[8-(4-chlorophenyl)-9H-purin-6-yl]amino}-2-hydroxycyclopentyl)methyl sulfamate] it was at most 500 nM; in that of `CO[C@H]1Cc2ccccc2[C@H]1Nc1cc(N[C@@H]2C[C@H](COS(N)(=O)=O)[C@@H](O)[C@H]2O)ncn1` [Compound I-2, {(1R,2R,3S,4R)-2,3-dihydroxy-4-[(6-{[(1R,2S)-2-methoxy-2,3-dihydro-1H-inden-1-yl]-amino}pyrimidin-4-yl)amino]cyclopentyl}methyl sulfamate], at most 500 nM.
`CO[C@H]1c2ccccc2C[C@H]1Oc1cc(O[C@@H]2C[C@@H](COS(N)(=O)=O)[C@@H](O)C2)ncn1` [Compound I-77, {(1S,2S,4R)-2-hydroxy-4-[(6-{[(1S,2R)-1-methoxy-2,3-dihydro-1H-inden-2-yl]oxy}-pyrimidin-4-yl)oxy]cyclopentyl}methyl sulfamate]: the 50% inhibitory concentration (IC50) was above 500 nM (bound given in nM) and below 10000 nM (bound given in μM).
With `CO[C@H]1CCc2ccccc2[C@H]1Nc1cc(O[C@@H]2C[C@@H](COS(N)(=O)=O)[C@@H](O)C2)ncn1` [Compound I-142, {(1S,2S,4R)-2-hydroxy-4-[(6-{[(1R,2S)-2-methoxy-1,2,3,4-tetrahydronaphthalen-1-yl]amino}pyrimidin-4-yl)oxy]cyclopentyl}methyl sulfamate], the IC50 (bound given in nM) is at most 500 nM.
Same read-out and setting: the figure for `CN(C)c1ccc(-c2nc3c(N[C@@H]4C[C@@H](COS(N)(=O)=O)[C@@H](O)C4)ncnc3[nH]2)c2ccccc12` [Compound I-64, [(1S,2S,4R)-4-({8-[4-(dimethylamino)-1-naphthyl]-9H-purin-6-yl}amino)-2-hydroxycyclopentyl]methyl sulfamate] is at most 500 nM.
For the compound `CN(C)C[C@H]1Cc2ccccc2[C@H]1Nc1cc(O[C@@H]2C[C@@H](COS(N)(=O)=O)[C@@H](O)C2)ncn1` [Compound I-53, ((1S,2S,4R)-4-{[6-({(1S,2R)-2-[(dimethylamino)methyl]-2,3-dihydro-1H-inden-1-yl}amino)pyrimidin-4-yl]oxy}-2-hydroxycyclopentyl)methyl sulfamate], the IC50 was above 500 nM (bound given in nM) and below 10000 nM (bound given in μM).
Take `NS(=O)(=O)OC[C@@H]1C[C@@H](Oc2ncnc3nc(-c4ccnc5cc(Cl)ccc45)[nH]c23)C[C@@H]1O` [Compound I-73, ((1S,2S,4R)-4-{[8-(7-chloroquinolin-4-yl)-7H-purin-6-yl]oxy}-2-hydroxycyclopentyl)methyl sulfamate]: the IC50 (bound given in nM) was at most 500 nM.
For `NS(=O)(=O)OC[C@H]1C[C@@H](Nc2cc(NCC3CCCCC3)ncn2)[C@H](O)[C@@H]1O` [Compound I-14, [(1R,2R,3S,4R)-4-({6-[(cyclohexylmethyl)amino]pyrimidin-4-yl}amino)-2,3-dihydroxycyclopentyl]methyl sulfamate], for the setting “bound given in nM”, the IC50 is at most 500 nM.
As to `NS(=O)(=O)OC[C@@H]1C[C@@H](Oc2cc(N[C@H]3CCc4ccccc43)ncn2)C[C@@H]1O` [Compound I-31, [(1S,2S,4R)-4-({6-[(1S)-2,3-Dihydro-1H-inden-1-ylamino]pyrimidin-4-yl}oxy)-2-hydroxycyclopentyl]methyl sulfamate], the IC50 (bound given in μM) was above 10000 nM.
Regarding `NS(=O)(=O)OC[C@H]1C[C@@H](Nc2cc(N[C@H]3CCc4ccccc43)ncn2)C[C@@H]1O` [Compound I-25, [(1R,2S,4R)-4-({6-[(1S)-2,3-dihydro-1H-inden-1-ylamino]pyrimidin-4-yl}amino)-2-hydroxycyclopentyl]methyl sulfamate], where the note is “bound given in nM”, the IC50 is at most 500 nM.
Consider `NS(=O)(=O)OC[C@@H]1C[C@@H](O)[C@H](Nc2cc(N[C@H]3CCc4ccccc43)ncn2)C1` [Compound I-76, [(1S,3R,4R)-3-({6-[(1S)-2,3-dihydro-1H-inden-1-ylamino]pyrimidin-4-yl}amino)-4-hydroxycyclopentyl]methyl sulfamate], for which the IC50 (bound given in μM) was above 10000 nM.
On to `NS(=O)(=O)OC[C@@H]1C[C@@H](Oc2ccnc(N[C@H]3CCc4ccccc43)c2)C[C@@H]1O` [Compound I-94, [(1S,2S,4R)-4-({2-[(1S)-2,3-dihydro-1H-inden-1-ylamino]pyridin-4-yl}oxy)-2-hydroxycyclopentyl]methyl sulfamate], for which the IC50 was above 500 nM (bound given in nM) and below 10000 nM (bound given in μM).
Turning to `CO[C@H]1Cc2ccccc2[C@H]1Nc1cc(O[C@@H]2C[C@@H](COS(N)(=O)=O)[C@@H](O)C2)ncn1` [Compound I-115, {(1S,2S,4R)-2-hydroxy-4-[(6-{[(1R,2S)-2-methoxy-2,3-dihydro-1H-inden-1-yl]amino}pyrimidin-4-yl)oxy]cyclopentyl}methyl sulfamate], the IC50 (bound given in nM) was at most 500 nM.
For `NS(=O)(=O)OC[C@@H]1C[C@@H](Nc2ncnc3nc(-c4ccc(OCc5ccccc5)cc4)[nH]c23)C[C@@H]1O` [Compound I-102, [(1S,2S,4R)-4-({8-[4-(benzyloxy)phenyl]-7H-purin-6-yl}amino)-2-hydroxycyclopentyl]methyl sulfamate], the IC50 (bound given in nM) is at most 500 nM.
Take `NS(=O)(=O)OC[C@H]1CC[C@H](Oc2ncnc3[nH]c(-c4cccc5ccccc45)nc23)C1` [Compound I-152, ((1S,3S)-3-{[8-(1-naphthyl)-9H-purin-6-yl]oxy}cyclopentyl)methyl sulfamate]: the IC50 (bound given in nM) was above 500 nM and the IC50 (bound given in μM) is below 10000 nM.
On to `NS(=O)(=O)OC[C@H]1C[C@@H](Nc2cc(NCc3ccccc3)ncn2)[C@H](O)[C@@H]1O` [Compound I-27, ((1R,2R,3S,4R)-4-{[6-(benzylamino)pyrimidin-4-yl]amino}-2,3-dihydroxycyclopentyl)-methyl sulfamate], for which the IC50 (bound given in nM) is at most 500 nM.
